Results: patent publication US20110027372A1, “MULTIPARTICULATES COMPRISING LOW-SOLUBILITY DRUGS AND CARRIERS THAT RESULT IN RAPID DRUG RELEASE” (priority 2005, published 2011)

experiment: Ratio of melting temperature to glass-transition temperature (Tm/Tg) of sugar alcohols; type: physicochemical
Excerpt: The inventors addressed this problem by using a sugar alcohol that rapidly crystallizes, resulting in improved recovery and efficiency during the multiparticulate-formation process. Without wishing to be bound by any particular theory, it is believed that the tendency for a sugar alcohol to crystallize from an aqueous solution is characterized by the ratio of the Tm of the sugar alcohol (in K) to the glass-transition temperature for the alcohol, Tg (in K) of the sugar alcohol. The driving force for crystallization is controlled primarily by Tm, while the kinetic barrier to crystallization is controlled primarily by the Tg. The ratio, Tm/Tg (in K/K), indicates the relative propensity for a sugar alcohol to crystallize. The inventors have discovered that sugar alcohols for which the ratio of Tm in K to Tg in K is at least about 1.5 can be effectively used to make multiparticulates with the desired properties. Preferably, this Tm/Tg ratio (K/K) is at least about 1.6, and more preferably at least about 1.65. Examples of suitable sugar alcohols include mannitol (Tm=438 K; Tg=234 K; Tm/Tg=1.87) and erythritol (Tm=394 K; Tg=231 K; Tm/Tg=1.71). Mixtures of such sugar alcohols may also be used.

Tm/Tg	SMILES
1.71 K/K	OC[C@@H](O)[C@@H](O)CO [Erythritol]
1.38 K/K	OC[C@@H](O)[C@@H](O)[C@H](O)[C@@H](O)CO [Sorbitol]
1.87 K/K	OC[C@@H](O)[C@@H](O)[C@H](O)[C@H](O)CO [Mannitol]
1.46 K/K	OC[C@@H](O)[C@H](O)[C@@H](O)CO [Xylitol]
1.32 K/K	OC[C@@H](O)[C@@H](O[C@H]1O[C@H](CO)[C@@H](O)[C@H](O)[C@H]1O)[C@H](O)[C@@H](O)CO [Maltitol]
